Among the data in patent US10584128B2, “Bicyclic dihydropyrimidine-carboxamide derivatives as Rho-Kinase inhibitors” (CHIESI FARMACEUTICI S.p.A., priority 2016, dated 2020) are Ki values, retold here.

By Ki is commonly meant the equilibrium dissociation constant of an inhibitor or competing ligand from its target.

The target in one test is Rho kinase 1 (Homo sapiens, UniProt Q13464). The experiment in a line: In vitro Rho kinase inhibitory activity assay (ADP-Glo kit, Myelin Basic Protein substrate). The class given is biochemical. As to conditions: 10 μM ATP, 25° C., read-out: ROCK1 inhibitory activity (Ki, range of activity). The procedure, abridged: (§1)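 First, compound was incubated with either Rho kinase isoform for 30 mins at 25 °C; next, ATP was added to 10 μM final with 2.5 μM Myelin Basic Protein substrate; after 1 hour, ADP formed was detected by ADP-Glo luminescence. Dose-response data yielded IC50, converted to Ki using Cheng-Prusoff.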
Sequence of Rho kinase 1 (Q13464 whole entry, canonical isoform): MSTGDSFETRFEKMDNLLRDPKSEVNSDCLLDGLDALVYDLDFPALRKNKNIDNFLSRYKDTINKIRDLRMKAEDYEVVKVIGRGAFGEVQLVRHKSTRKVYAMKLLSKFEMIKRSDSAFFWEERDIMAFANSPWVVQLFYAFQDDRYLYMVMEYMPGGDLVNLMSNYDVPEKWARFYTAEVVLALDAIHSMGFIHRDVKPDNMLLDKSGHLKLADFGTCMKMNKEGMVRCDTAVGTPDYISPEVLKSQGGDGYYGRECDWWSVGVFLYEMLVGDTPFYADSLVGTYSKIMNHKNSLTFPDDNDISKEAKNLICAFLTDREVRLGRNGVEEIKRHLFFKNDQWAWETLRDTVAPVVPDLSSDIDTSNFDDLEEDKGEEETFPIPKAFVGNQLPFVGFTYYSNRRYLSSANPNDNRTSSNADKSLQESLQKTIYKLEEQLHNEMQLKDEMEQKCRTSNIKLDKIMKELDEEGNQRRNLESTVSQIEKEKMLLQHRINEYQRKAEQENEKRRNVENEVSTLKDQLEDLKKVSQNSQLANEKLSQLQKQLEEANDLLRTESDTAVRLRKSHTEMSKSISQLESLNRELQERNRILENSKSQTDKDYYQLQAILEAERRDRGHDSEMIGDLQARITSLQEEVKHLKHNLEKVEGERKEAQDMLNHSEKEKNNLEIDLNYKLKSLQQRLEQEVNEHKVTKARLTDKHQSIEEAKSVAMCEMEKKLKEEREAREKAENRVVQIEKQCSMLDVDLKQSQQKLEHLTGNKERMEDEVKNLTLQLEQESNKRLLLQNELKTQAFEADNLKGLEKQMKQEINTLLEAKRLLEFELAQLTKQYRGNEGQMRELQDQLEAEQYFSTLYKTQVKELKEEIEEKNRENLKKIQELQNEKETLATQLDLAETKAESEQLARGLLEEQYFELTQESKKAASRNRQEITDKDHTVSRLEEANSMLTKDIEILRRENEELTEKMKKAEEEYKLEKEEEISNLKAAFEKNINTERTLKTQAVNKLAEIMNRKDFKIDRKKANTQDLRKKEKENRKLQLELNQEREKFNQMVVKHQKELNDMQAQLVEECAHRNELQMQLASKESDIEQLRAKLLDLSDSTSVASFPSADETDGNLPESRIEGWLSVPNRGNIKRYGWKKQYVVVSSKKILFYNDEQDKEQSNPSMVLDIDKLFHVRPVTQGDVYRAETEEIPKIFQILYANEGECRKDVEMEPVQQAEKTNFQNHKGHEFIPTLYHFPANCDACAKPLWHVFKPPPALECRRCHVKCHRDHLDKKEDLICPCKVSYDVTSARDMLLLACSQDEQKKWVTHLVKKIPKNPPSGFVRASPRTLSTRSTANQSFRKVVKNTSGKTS
(ADP-Glo first removes unused ATP, then detects ADP through luciferase.)

The target in the next test is Rho kinase 2 (Homo sapiens, UniProt O75116). The description is as above. The test is classed as biochemical. Conditions: 10 μM ATP, 25° C., read-out: ROCK2 inhibitory activity (Ki, range of activity). The procedure, abridged:
as §1

Sequence of Rho kinase 2 (O75116 whole entry): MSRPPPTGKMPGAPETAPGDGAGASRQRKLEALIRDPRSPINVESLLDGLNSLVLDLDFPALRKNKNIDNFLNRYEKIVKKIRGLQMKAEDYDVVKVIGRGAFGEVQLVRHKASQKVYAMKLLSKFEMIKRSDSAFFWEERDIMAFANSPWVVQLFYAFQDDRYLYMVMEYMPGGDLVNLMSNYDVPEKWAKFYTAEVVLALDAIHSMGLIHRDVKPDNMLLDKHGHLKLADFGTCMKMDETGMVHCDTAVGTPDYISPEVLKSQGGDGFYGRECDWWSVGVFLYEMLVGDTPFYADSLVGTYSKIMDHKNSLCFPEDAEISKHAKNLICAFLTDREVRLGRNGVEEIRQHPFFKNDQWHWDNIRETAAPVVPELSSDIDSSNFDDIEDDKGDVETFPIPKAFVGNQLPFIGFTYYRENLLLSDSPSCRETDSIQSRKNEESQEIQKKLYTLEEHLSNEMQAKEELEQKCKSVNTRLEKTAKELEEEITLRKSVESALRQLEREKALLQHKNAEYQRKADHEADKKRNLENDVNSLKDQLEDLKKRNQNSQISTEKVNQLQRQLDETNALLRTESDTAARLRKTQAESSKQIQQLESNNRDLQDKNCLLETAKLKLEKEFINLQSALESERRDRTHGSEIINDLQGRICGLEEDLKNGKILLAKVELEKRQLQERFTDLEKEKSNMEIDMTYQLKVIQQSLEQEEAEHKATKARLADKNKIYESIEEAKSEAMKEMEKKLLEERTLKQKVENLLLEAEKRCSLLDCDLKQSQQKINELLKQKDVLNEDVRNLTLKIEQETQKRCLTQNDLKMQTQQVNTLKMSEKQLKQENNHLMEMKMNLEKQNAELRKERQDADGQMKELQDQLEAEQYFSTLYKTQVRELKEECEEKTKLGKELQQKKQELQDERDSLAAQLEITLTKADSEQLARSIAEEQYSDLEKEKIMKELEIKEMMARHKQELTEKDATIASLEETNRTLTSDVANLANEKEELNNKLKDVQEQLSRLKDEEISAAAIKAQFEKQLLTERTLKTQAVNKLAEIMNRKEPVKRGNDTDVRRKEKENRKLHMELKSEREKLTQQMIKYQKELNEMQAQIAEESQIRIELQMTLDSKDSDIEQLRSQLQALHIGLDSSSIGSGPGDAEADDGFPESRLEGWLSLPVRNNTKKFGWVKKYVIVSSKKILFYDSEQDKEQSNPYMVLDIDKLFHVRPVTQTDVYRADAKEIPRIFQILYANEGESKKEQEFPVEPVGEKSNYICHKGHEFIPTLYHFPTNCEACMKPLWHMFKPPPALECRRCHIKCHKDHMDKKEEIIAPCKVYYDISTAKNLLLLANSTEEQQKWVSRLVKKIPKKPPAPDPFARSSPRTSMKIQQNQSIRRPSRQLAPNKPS

For the compound `O=C(Nc1ccc2cnccc2c1)C1=C(C2CC2)Nc2cc(CO)nn2C1c1ccc(C(F)(F)F)c(F)c1` (centres unmarked) [Example 118, 5-cyclopropyl-7-(3-fluoro-4-(trifluoromethyl)phenyl)-2-(hydroxymethyl)-N-(isoquinolin-6-yl)-4,7-dihydropyrazolo[1,5-a]pyrimidine-6-carboxamide], the Ki at Rho kinase 1 and at Rho kinase 2 was < 50 nM throughout.
